Assay results published in ChEMBL document CHEMBL4725230, “Syntheses and pharmacokinetic evaluations of four metabolites of 2-(4-(2-((1H-benzo[d]imidazol-2-yl)thio)ethyl)piperazin-1-yl)-N-(6-methyl-2,4-bis-(methylthio)pyridin-3-yl)acetamide hydrochloride [K-604], an acyl-CoA:cholesterol O-acyltransferase-1 inhibitor” (Bioorg Med Chem, 2020).

Assays:
[1] = biological target: T1, Cytochrome P450 3A2 (Rattus norvegicus, UniProt P05183); experiment: Drug metabolism in male rat liver microsomes assessed as CYP3A2-mediated 2-(4-(2-((1H-Benzo[d]imidazol-2-yl)thio)ethyl)piperazin-1-yl)-N-(6-methyl-4-(methylsulfinyl)-2-(methylthio)pyridin-3-yl)acetamide formation; type: ADME
T1 sequence (P05183 whole entry): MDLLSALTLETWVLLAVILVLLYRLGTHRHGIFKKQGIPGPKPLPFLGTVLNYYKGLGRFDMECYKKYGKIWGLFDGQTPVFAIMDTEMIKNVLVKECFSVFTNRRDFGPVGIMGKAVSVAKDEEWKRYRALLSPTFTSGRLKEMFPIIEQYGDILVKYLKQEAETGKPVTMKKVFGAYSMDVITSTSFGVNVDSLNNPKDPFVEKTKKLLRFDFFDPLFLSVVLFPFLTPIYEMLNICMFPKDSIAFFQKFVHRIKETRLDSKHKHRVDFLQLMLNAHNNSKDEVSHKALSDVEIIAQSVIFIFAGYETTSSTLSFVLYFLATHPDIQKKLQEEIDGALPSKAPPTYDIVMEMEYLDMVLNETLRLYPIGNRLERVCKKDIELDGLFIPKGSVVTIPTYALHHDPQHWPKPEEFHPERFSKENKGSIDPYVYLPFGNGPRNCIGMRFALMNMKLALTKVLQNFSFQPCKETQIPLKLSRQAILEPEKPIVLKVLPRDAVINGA

[2] = Drug metabolism in cynomolgus monkey plasma assessed as 2-(4-(2-((1H-Benzo[d]imidazol-2-yl)sulfinyl)ethyl)piperazin-1-yl)-N-(6-methyl-2,4-bis(methylthio)pyridin-3-yl)acetamide formation at 10 mg/kg, administered into stomach using nasogastric catheter measured upto 360 mins by column-switching HPLC method; type: ADME, organism-based, Macaca fascicularis; conditions: in vivo, po, 6 h
[3] = biological target: T2, Cytochrome P450 3A4 (Homo sapiens, UniProt P08684); experiment: Drug metabolism in human liver microsomes assessed as CYP3A4-mediated 2-(4-(2-((1H-Benzo[d]imidazol-2-yl)thio)ethyl)piperazin-1-yl)-N-(6-methyl-2-(methyl-sulfinyl)-4-(methylthio)pyridin-3-yl)acetamide formation; type: ADME
T2 sequence (P08684 whole entry): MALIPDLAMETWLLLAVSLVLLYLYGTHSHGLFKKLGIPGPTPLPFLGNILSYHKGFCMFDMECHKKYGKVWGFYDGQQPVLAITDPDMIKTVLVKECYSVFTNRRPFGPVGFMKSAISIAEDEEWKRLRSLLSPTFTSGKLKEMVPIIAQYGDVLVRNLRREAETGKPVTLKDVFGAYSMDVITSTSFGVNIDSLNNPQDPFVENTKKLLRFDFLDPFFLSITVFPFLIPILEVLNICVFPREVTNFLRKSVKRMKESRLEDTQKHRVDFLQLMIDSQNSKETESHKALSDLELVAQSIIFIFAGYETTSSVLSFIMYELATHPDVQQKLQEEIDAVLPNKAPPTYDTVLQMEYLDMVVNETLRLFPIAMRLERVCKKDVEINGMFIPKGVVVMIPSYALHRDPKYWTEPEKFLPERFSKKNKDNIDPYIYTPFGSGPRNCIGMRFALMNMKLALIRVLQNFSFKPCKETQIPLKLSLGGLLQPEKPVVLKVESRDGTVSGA

[4] = biological target: T3, Cytochrome P450 2C9 (Homo sapiens, UniProt P11712); experiment: Drug metabolism in human liver microsomes assessed as CYP2C9-mediated 2-(4-(2-((1H-Benzo[d]imidazol-2-yl)thio)ethyl)piperazin-1-yl)-N-(6-methyl-4-(methylsulfinyl)-2-(methylthio)pyridin-3-yl)acetamide formation; type: ADME
T3 sequence (P11712 whole entry): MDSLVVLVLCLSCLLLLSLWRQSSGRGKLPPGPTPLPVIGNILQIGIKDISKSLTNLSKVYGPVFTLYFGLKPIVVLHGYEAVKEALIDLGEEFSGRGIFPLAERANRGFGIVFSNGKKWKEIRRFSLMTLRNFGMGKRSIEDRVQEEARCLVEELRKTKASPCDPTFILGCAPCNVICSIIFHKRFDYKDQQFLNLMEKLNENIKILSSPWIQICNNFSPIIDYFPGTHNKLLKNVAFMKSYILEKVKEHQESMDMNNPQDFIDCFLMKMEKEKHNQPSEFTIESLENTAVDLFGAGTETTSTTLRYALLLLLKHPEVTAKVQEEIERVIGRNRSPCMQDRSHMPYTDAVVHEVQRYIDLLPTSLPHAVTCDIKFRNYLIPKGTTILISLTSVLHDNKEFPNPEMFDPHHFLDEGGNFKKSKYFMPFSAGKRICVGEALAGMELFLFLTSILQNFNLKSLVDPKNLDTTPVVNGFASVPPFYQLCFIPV

[5] = test system: Cytochrome P450; experiment: Drug metabolism in human liver microsomes assessed as Vmax for cytochrome p450-mediated 2-(4-(2-((1H-Benzo[d]imidazol-2-yl)sulfinyl)ethyl)piperazin-1-yl)-N-(6-methyl-2,4-bis(methylthio)pyridin-3-yl)acetamide formation; type: ADME
[6] = Clearance in human liver microsomes assessed as 2-(4-(2-((1H-Benzo[d]imidazol-2-yl)sulfinyl)ethyl)piperazin-1-yl)-N-(6-methyl-2,4-bis(methylthio)pyridin-3-yl)acetamide level per mg protein; type: ADME, Microsome
[7] = biological target: T4, Cytochrome P450 2C11 (Rattus norvegicus, UniProt P08683); experiment: Drug metabolism in […] rat liver microsomes assessed as CYP2C11-mediated 2-(4-(2-((1H-Benzo[d]imidazol-2-yl)thio)ethyl)piperazin-1-yl)-N-(6-methyl-4-(methylsulfinyl)-2-(methylthio)pyridin-3-yl)acetamide formation; type: ADME
T4 sequence (P08683 whole entry): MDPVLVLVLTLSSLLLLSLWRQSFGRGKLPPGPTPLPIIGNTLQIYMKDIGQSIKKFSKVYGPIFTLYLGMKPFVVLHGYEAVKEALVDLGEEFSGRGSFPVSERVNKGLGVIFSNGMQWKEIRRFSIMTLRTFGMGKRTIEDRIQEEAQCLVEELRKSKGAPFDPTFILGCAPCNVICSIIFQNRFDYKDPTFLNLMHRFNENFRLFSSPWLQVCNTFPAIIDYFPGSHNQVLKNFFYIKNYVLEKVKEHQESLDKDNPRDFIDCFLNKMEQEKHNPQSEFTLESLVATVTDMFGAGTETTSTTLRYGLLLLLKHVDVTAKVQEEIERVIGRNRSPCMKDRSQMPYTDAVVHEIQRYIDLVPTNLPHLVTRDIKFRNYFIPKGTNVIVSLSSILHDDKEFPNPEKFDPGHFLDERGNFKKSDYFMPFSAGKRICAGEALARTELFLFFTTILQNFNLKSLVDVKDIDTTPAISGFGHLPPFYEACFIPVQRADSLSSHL

[8] = Drug metabolism in cynomolgus monkey plasma assessed as 2-(4-(2-((5-Hydroxy-1H-benzo[d]imidazol-2-yl)thio)ethyl)piperazin-1-yl)-N-(6-methyl-2,4-bis(methylthio)pyridin-3-yl)acetamide formation at 10 mg/kg, administered into stomach using nasogastric catheter measured upto 360 mins by column-switching HPLC method; type: ADME, organism-based, Macaca fascicularis; conditions: in vivo, po, 6 h
[9] = biological target: T5, Cytochrome P450 3A5 (Homo sapiens, UniProt P20815); experiment: Drug metabolism in human liver microsomes assessed as CYP3A5-mediated 2-(4-(2-((1H-Benzo[d]imidazol-2-yl)thio)ethyl)piperazin-1-yl)-N-(6-methyl-4-(methylsulfinyl)-2-(methylthio)pyridin-3-yl)acetamide formation; type: ADME
T5 sequence (P20815 whole entry): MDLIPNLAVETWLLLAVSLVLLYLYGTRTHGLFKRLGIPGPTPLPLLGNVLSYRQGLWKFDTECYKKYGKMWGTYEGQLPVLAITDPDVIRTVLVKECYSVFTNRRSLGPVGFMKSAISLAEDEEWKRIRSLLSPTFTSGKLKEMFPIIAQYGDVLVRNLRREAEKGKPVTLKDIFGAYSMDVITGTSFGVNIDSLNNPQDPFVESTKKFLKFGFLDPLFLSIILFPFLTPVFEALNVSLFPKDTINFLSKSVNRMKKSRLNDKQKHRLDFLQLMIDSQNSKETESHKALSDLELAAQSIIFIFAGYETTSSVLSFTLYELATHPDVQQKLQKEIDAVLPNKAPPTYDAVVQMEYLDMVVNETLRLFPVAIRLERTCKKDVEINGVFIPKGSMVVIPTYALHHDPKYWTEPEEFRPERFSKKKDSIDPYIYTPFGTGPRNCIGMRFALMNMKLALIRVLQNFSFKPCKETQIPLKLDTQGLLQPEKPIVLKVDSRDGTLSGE

[10] = test system: Cytochrome P450; experiment: Drug metabolism in human liver microsomes assessed as Vmax for cytochrome p450-mediated 2-(4-(2-((1H-Benzo[d]imidazol-2-yl)thio)ethyl)piperazin-1-yl)-N-(6-methyl-2-(methyl-sulfinyl)-4-(methylthio)pyridin-3-yl)acetamide formation; type: ADME
[11] = Metabolic stability in female rat liver microsomes assessed as parent compound remaining; type: ADME, Microsome
[12] = test system: Cytochrome P450; experiment: Drug metabolism in human liver microsomes assessed as Vmax for cytochrome p450-mediated 2-(4-(2-((5-Hydroxy-1H-benzo[d]imidazol-2-yl)thio)ethyl)piperazin-1-yl)-N-(6-methyl-2,4-bis(methylthio)pyridin-3-yl)acetamide formation; type: ADME
[13] = biological target: Cytochrome P450 2D6 (Homo sapiens, UniProt P10635); experiment: Drug metabolism in human liver microsomes assessed as CYP2D6-mediated 2-(4-(2-((1H-Benzo[d]imidazol-2-yl)thio)ethyl)piperazin-1-yl)-N-(6-methyl-4-(methylsulfinyl)-2-(methylthio)pyridin-3-yl)acetamide formation; type: ADME
Sequence of Cytochrome P450 2D6 (P10635 whole entry): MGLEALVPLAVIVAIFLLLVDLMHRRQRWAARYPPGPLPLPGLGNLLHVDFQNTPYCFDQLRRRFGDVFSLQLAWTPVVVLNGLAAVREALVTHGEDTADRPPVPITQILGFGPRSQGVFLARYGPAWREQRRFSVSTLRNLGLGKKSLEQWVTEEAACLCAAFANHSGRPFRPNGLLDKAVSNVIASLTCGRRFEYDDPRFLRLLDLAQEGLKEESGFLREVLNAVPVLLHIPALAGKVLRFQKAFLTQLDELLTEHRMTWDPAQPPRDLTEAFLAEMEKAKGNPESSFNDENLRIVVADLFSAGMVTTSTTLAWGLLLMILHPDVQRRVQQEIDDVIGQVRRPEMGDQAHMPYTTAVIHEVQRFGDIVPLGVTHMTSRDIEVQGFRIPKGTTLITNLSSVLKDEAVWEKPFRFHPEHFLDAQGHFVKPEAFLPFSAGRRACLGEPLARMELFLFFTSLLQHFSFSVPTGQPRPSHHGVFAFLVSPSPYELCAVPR

[14] = biological target: T2, Cytochrome P450 3A4; experiment: Drug metabolism in human liver microsomes assessed as CYP3A4-mediated 2-(4-(2-((5-Hydroxy-1H-benzo[d]imidazol-2-yl)thio)ethyl)piperazin-1-yl)-N-(6-methyl-2,4-bis(methylthio)pyridin-3-yl)acetamide formation; type: ADME
[15] = Clearance in human liver microsomes assessed as 2-(4-(2-((5-Hydroxy-1H-benzo[d]imidazol-2-yl)thio)ethyl)piperazin-1-yl)-N-(6-methyl-2,4-bis(methylthio)pyridin-3-yl)acetamide level per mg protein; type: ADME, Microsome
[16] = biological target: T2, Cytochrome P450 3A4; experiment: Drug metabolism in human liver microsomes assessed as CYP3A4-mediated 2-(4-(2-((1H-Benzo[d]imidazol-2-yl)thio)ethyl)piperazin-1-yl)-N-(6-methyl-4-(methylsulfinyl)-2-(methylthio)pyridin-3-yl)acetamide formation; type: ADME
[17] = test system: Cytochrome P450; experiment: Drug metabolism in human liver microsomes assessed as Vmax for cytochrome p450-mediated 2-(4-(2-((1H-Benzo[d]imidazol-2-yl)thio)ethyl)piperazin-1-yl)-N-(6-methyl-4-(methylsulfinyl)-2-(methylthio)pyridin-3-yl)acetamide formation; type: ADME
[18] = Metabolic stability in cynomolgus monkey plasma assessed as parent compound remaining formation at 10 mg/kg, administered into stomach using nasogastric catheter measured upto 360 mins by column-switching HPLC method; type: ADME, organism-based, Macaca fascicularis; conditions: in vivo, po, 6 h
[19] = Clearance in human liver microsomes assessed as 2-(4-(2-((1H-Benzo[d]imidazol-2-yl)thio)ethyl)piperazin-1-yl)-N-(6-methyl-2-(methyl-sulfinyl)-4-(methylthio)pyridin-3-yl)acetamide level per mg protein; type: ADME, Microsome
[20] = biological target: T5, Cytochrome P450 3A5; experiment: Drug metabolism in human liver microsomes assessed as CYP3A5-mediated 2-(4-(2-((1H-Benzo[d]imidazol-2-yl)sulfinyl)ethyl)piperazin-1-yl)-N-(6-methyl-2,4-bis(methylthio)pyridin-3-yl)acetamide formation; type: ADME
[21] = biological target: T5, Cytochrome P450 3A5; experiment: Drug metabolism in human liver microsomes assessed as CYP3A5-mediated 2-(4-(2-((1H-Benzo[d]imidazol-2-yl)thio)ethyl)piperazin-1-yl)-N-(6-methyl-2-(methyl-sulfinyl)-4-(methylthio)pyridin-3-yl)acetamide formation; type: ADME
[22] = Drug metabolism in cynomolgus monkey plasma assessed as 2-(4-(2-((1H-Benzo[d]imidazol-2-yl)thio)ethyl)piperazin-1-yl)-N-(6-methyl-2-(methyl-sulfinyl)-4-(methylthio)pyridin-3-yl)acetamide formation at 10 mg/kg, administered into stomach using nasogastric catheter measured upto 360 mins by column-switching HPLC method; type: ADME, organism-based, Macaca fascicularis; conditions: in vivo, po, 6 h
[23] = biological target: T3, Cytochrome P450 2C9; experiment: Drug metabolism in human liver microsomes assessed as CYP2C9-mediated 2-(4-(2-((1H-Benzo[d]imidazol-2-yl)sulfinyl)ethyl)piperazin-1-yl)-N-(6-methyl-2,4-bis(methylthio)pyridin-3-yl)acetamide formation; type: ADME
[24] = test system: Cytochrome P450; experiment: Drug metabolism in human liver microsomes assessed as Km for cytochrome p450-mediated 2-(4-(2-((5-Hydroxy-1H-benzo[d]imidazol-2-yl)thio)ethyl)piperazin-1-yl)-N-(6-methyl-2,4-bis(methylthio)pyridin-3-yl)acetamide formation; type: ADME
[25] = Clearance in human liver microsomes assessed as 2-(4-(2-((1H-Benzo[d]imidazol-2-yl)thio)ethyl)piperazin-1-yl)-N-(6-methyl-4-(methylsulfinyl)-2-(methylthio)pyridin-3-yl)acetamide level per mg protein; type: ADME, Microsome
[26] = biological target: T2, Cytochrome P450 3A4; experiment: Drug metabolism in human liver microsomes assessed as CYP3A4-mediated 2-(4-(2-((1H-Benzo[d]imidazol-2-yl)sulfinyl)ethyl)piperazin-1-yl)-N-(6-methyl-2,4-bis(methylthio)pyridin-3-yl)acetamide formation; type: ADME
[27] = biological target: T5, Cytochrome P450 3A5; experiment: Drug metabolism in human liver microsomes assessed as CYP3A5-mediated 2-(4-(2-((5-Hydroxy-1H-benzo[d]imidazol-2-yl)thio)ethyl)piperazin-1-yl)-N-(6-methyl-2,4-bis(methylthio)pyridin-3-yl)acetamide formation; type: ADME
[28] = biological target: T3, Cytochrome P450 2C9; experiment: Drug metabolism in human liver microsomes assessed as CYP2C9-mediated 2-(4-(2-((5-Hydroxy-1H-benzo[d]imidazol-2-yl)thio)ethyl)piperazin-1-yl)-N-(6-methyl-2,4-bis(methylthio)pyridin-3-yl)acetamide formation; type: ADME
[29] = test system: Cytochrome P450; experiment: Drug metabolism in human liver microsomes assessed as Km for cytochrome p450-mediated 2-(4-(2-((1H-Benzo[d]imidazol-2-yl)thio)ethyl)piperazin-1-yl)-N-(6-methyl-2-(methyl-sulfinyl)-4-(methylthio)pyridin-3-yl)acetamide formation; type: ADME
[30] = test system: Cytochrome P450; experiment: Drug metabolism in human liver microsomes assessed as Km for cytochrome p450-mediated 2-(4-(2-((1H-Benzo[d]imidazol-2-yl)thio)ethyl)piperazin-1-yl)-N-(6-methyl-4-(methylsulfinyl)-2-(methylthio)pyridin-3-yl)acetamide formation; type: ADME
[31] = biological target: T1, Cytochrome P450 3A2; experiment: Drug metabolism in male rat liver microsomes assessed as CYP3A2-mediated 2-(4-(2-((1H-Benzo[d]imidazol-2-yl)thio)ethyl)piperazin-1-yl)-N-(6-methyl-2-(methyl-sulfinyl)-4-(methylthio)pyridin-3-yl)acetamide formation; type: ADME
[32] = biological target: T3, Cytochrome P450 2C9; experiment: Drug metabolism in human liver microsomes assessed as CYP2C9-mediated 2-(4-(2-((1H-Benzo[d]imidazol-2-yl)thio)ethyl)piperazin-1-yl)-N-(6-methyl-2-(methyl-sulfinyl)-4-(methylthio)pyridin-3-yl)acetamide formation; type: ADME
[33] = Drug metabolism in cynomolgus monkey plasma assessed as 2-(4-(2-((1H-Benzo[d]imidazol-2-yl)thio)ethyl)piperazin-1-yl)-N-(6-methyl-4-(methylsulfinyl)-2-(methylthio)pyridin-3-yl)acetamide formation at 10 mg/kg, administered into stomach using nasogastric catheter measured upto 360 mins by column-switching HPLC method; type: ADME, organism-based, Macaca fascicularis; conditions: in vivo, po, 6 h
[34] = test system: Cytochrome P450; experiment: Drug metabolism in human liver microsomes assessed as Km for cytochrome p450-mediated 2-(4-(2-((1H-Benzo[d]imidazol-2-yl)sulfinyl)ethyl)piperazin-1-yl)-N-(6-methyl-2,4-bis(methylthio)pyridin-3-yl)acetamide formation; type: ADME
[35] = Metabolic stability in male rat liver microsomes assessed as assessed as parent compound remaining; type: ADME, Microsome
[36] = Clearance in human liver microsomes assessed per mg protein for 5 mins in presence of NADPH by LC-MS/MS analysis; type: ADME, Microsome; conditions: read-out: CLH

CSc1cc(C)nc(SC)c1NC(=O)CN1CCN(CCSc2nc3ccccc3[nH]2)CC1.Cl
Drug metabolism [1]: Metabolite_Detected | Drug metabolism [2]: Metabolite_Detected | Drug metabolism [3]: Metabolite_Detected | Drug metabolism [4]: Metabolite_Notdetected | Vmax [5]: 558 pmol/min/mg | CLH [6]: 219 µL/min | Drug metabolism [7]: Metabolite_Notdetected | Drug metabolism [8]: Metabolite_Detected | Drug metabolism [9]: Metabolite_Detected | Vmax [10]: 363 pmol/min/mg | Stabilty [11]: 76.1% | Vmax [12]: 343 pmol/min/mg | Drug metabolism [13]: Metabolite_Detected | Drug metabolism [14]: Metabolite_Detected | CLH [15]: 168 µL/min | Drug metabolism [16]: Metabolite_Detected | Vmax [17]: 1773 pmol/min/mg | Stabilty [18]: Stable | CLH [19]: 125 µL/min | Drug metabolism [20]: Metabolite_Detected | Drug metabolism [21]: Metabolite_Detected | Drug metabolism [22]: Metabolite_Notdetected | Drug metabolism [23]: Metabolite_Notdetected | Km [24]: 2 µM | CLH [25]: 1353 µL/min | Drug metabolism [26]: Metabolite_Detected | Drug metabolism [27]: Metabolite_Detected | Drug metabolism [28]: Metabolite_Notdetected | Km [29]: 4.3 µM | Km [30]: 1.3 µM | Drug metabolism [31]: Metabolite_Detected | Drug metabolism [32]: Metabolite_Notdetected | Drug metabolism [33]: Metabolite_Detected | Km [34]: 2.6 µM | Stabilty [35]: 5.2% | microsomal CLint [36]: 720 µL/min/mg
